# From patent US5631401A, “Inhibitors of protein farnesyltransferase and squalene synthase” (Abbott Laboratories, priority 1995, dated 1997)
# Target: T1, Rat brain protein farnesyltransferase (Rattus norvegicus, UniProt Q02293+Q04631)
# T1 construct: The enzyme was purified according to Reiss, Y., et al., Cell, 62: 81-88 (1990), utilizing steps one through three; from tissue; host or cells: rat brain
# Test: In vitro inhibition of protein farnesyltransferase (biotin-lamin substrate, scintillation proximity assay)
# Format: biochemical
# Conditions: for inhibition at 10 µM: compared to uninhibited control; for inhibition at 1 µM: 1 μM (footnote *), read-out: % Inhibition at 1 μM (protein farnesyltransferase, values marked *)
# Method: In vitro inhibition of protein farnesyltransferase may be measured by the following procedure. (Procedures for determination of the inhibition of farnesylation of the oncogene protein Ras are described by Goldstein, et al., J. Biol. Chem., 266: 15575-15578 (1991) and by Singh in U.S. Pat. No. 5,245,061 both of which are incorporated herein by reference.)
# Rat brain protein farnesyltransferase activity was measured using the biotin-lamin substrate (which is known to undergo farnesylation in a manner analogous to Ras protein) and radioactive farnesyl diphosphate provided by Amersham Life Science in their commercial scintillation proximity assay kit for the determination of farnesyltransferase. The enzyme was purified according to Reiss, Y., et al., Cell, 62: 81-88 (1990), utilizing steps one through three. The specific activity of the enzyme was approximately 10 nmol substrate farnesylated/mg enzyme/hour. […]
SMILES,inhibition at 10 µM,inhibition at 1 µM
"CCCN(Cc1ccc(Oc2ccccc2)cc1)C(=O)[C@H]1[C@H](C(=O)O)[C@H](C(=O)N(C)CC/C=C(\C)CCC=C(C)C)[C@H]1C(=O)O (relative stereo) [Example 41, (1α,2β,3β,4α)-1-[N-Propyl-N-(4-phenoxybenzyl)aminocarbonyl]-3-[N-methyl-N-(homogeranyl)aminocarbonyl]cyclobutane-2,4-dicarboxylic acid]",63%,–
"O=C(O)[C@H]1[C@H](C(=O)N2CCCC(c3ccccc3)C2)[C@H](C(=O)O)[C@H]1C(=O)N1CCCC(c2ccccc2)C1 (relative stereo) [Example 83, (1α,2β,3β,4α)-1,3-Di [(3-phenylpiperidin-1-yl)carbonyl]cyclobutane-2,4-dicarboxylic acid]",37%,–
"O=C(O)[C@H]1[C@H](C(=O)OCc2ccc(Oc3ccccc3)cc2)[C@H](C(=O)O)[C@H]1C(=O)OCc1ccc(Oc2ccccc2)cc1 [Example 36, (1α,2β,3β,4α)-1,3-Di[4-phenoxybenzyloxycarbonyl]cyclobutane-2,4-dicarboxylic acid]",24%,–
"CCCN(Cc1ccc(OC2CCCCC2)cc1)C(=O)[C@H]1[C@H](C(=O)O)[C@H](C(=O)N(CCC)Cc2ccc(OC3CCCCC3)cc2)[C@H]1C(=O)O [Example 37, (1α,2β,3β,4α)-1,3-Di[N-propyl-N-(4-cyclohexyloxybenzyl)aminocarbonyl]cyclobutane-2,4-dicarboxylic acid]",22%,–
"CCCN(CCCCCc1ccccc1)C(=O)[C@H]1[C@H](C(=O)O)[C@H](C(=O)N(CCC)CCCCCc2ccccc2)[C@H]1C(=O)O [Example 38, (1α,2β,3β,4α)-1,3-Di[N-propyl-N-(5-phenylpentyl)aminocarbonyl]cyclobutane-2,4-dicarboxylic acid]",85%,–
"CCCN(CCCCOc1ccccc1)C(=O)[C@H]1[C@H](C(=O)O)[C@H](C(=O)N(CCC)CCCCOc2ccccc2)[C@H]1C(=O)O [Example 39, (1α,2β,3β,4α)-1,3-Di[N-propyl-N-(4-phenoxybutyl)aminocarbonyl]cyclobutane-2,4-dicarboxylic acid]",66%,–
"O=C(O)CN(Cc1ccc(Oc2ccccc2)cc1)C(=O)C1C(C(=O)O)C(C(=O)N(CC(=O)O)Cc2ccc(Oc3ccccc3)cc2)C1C(=O)O (stereo not drawn) [Example 43, (1α,2β,3β,4α)-1,3-Di[N-carboxymethyl-N-(4-phenoxybenzyl)aminocarbonyl]cyclobutane-2,4-dicarboxylic acid]",–,54%
"CCCN(Cc1ccc(Oc2ccccc2)cc1)C(=O)C1C(C(=O)O)C(C(=O)N(CCC)Cc2ccc(Oc3ccccc3)cc2)C1C(=O)O (stereo not drawn) [Example 47, (1α,2β,3β,4α)-1,3-Di[N-propyl-N-(4-phenoxybenzyl)aminocarbonyl]cyclobutane-2,4-dicarboxylic acid]",50%,–
"CCCN(Cc1ccc(Oc2ccc3c(c2)OCO3)cc1)C(=O)C1C(C(=O)O)C(C(=O)N(CCC)Cc2ccc(Oc3ccc4c(c3)OCO4)cc2)C1C(=O)O (stereo not drawn) [Example 48, (1α,2β,3β,4α)-1,3-Di[N-propyl-N-(4-(3,4-methylenedioxyphenoxy)benzyl)aminocarbonyl]cyclobutane-2,4-dicarboxylic acid]",61%,–
"COc1ccc2c(c1)CCN(C(=O)C1C(C(=O)O)C(C(=O)N3CCc4cc(OC)ccc4C3)C1C(=O)O)C2 (stereo not drawn) [Example 49, (1α,2β,3β,4α)-1,3-Di[6-methoxy-1,2,3,4-tetrahydroisoquinolin-2-ylcarbonyl]cyclobutane-2,4-dicarboxylic acid]",23%,–
"CCCN(Cc1ccc(Oc2ccccc2C)cc1)C(=O)C1C(C(=O)O)C(C(=O)N(CCC)Cc2ccc(Oc3ccccc3C)cc2)C1C(=O)O (stereo not drawn) [Example 50, (1α,2β,3β,4α)-1,3-Di[N-propyl-N-(4-(2-methylphenoxy)benzyl)aminocarbonyl]cyclobutane-2,4-dicarboxylic acid]",35%,–
"CCCN(Cc1ccc(Oc2ccccc2)o1)C(=O)C1C(C(=O)O)C(C(=O)N(CCC)Cc2ccc(Oc3ccccc3)o2)C1C(=O)O (stereo not drawn) [Example 52, (1α,2β,3β,4α)-1,3-Di[N-propyl-N-(5-phenoxyfurfuryl)aminocarbonyl]cyclobutane-2,4-dicarboxylic acid]",51%,–
CCCN(Cc1ccc(Oc2nccs2)cc1)C(=O)C1C(C(=O)O)C(C(=O)N(CCC)Cc2ccc(Oc3nccs3)cc2)C1C(=O)O (stereo not drawn) [Example 55],–,22%
"CCCN(Cc1ccc(Cn2cccc2)cc1)C(=O)C1C(C(=O)O)C(C(=O)N(CCC)Cc2ccc(Cn3cccc3)cc2)C1C(=O)O (stereo not drawn) [Example 56, (1α,2β,3β,4α)-1,3-Di[N-propyl-N-(4-(pyrrol-1-ylmethyl)benzyl)aminocarbonyl]cyclobutane-2,4-dicarboxylic acid]",78%,–
"CCCN(CC=C=Cc1ccccc1)C(=O)C1C(C(=O)O)C(C(=O)N(CC=C=Cc2ccccc2)CCC)C1C(=O)O (stereo not drawn) [Example 60, (1α,2β,3β,4α)-1,3-Di[N-propyl-N-(4-phenyl-2,3-butadien-1-yl)aminocarbonyl]cyclobutane-2,4-dicarboxylic acid]",–,23%
"CCCN(CC#CCc1ccccc1)C(=O)[C@H]1[C@H](C(=O)O)[C@H](C(=O)N(CC#CCc2ccccc2)CCC)[C@H]1C(=O)O [Example 61, (1α,2β,3β,4α)-1,3-Di{N-propyl-N-(4-phenylbut-2-yn-1-yl)aminocarbonyl}cyclobutane-2,4-dicarboxylic acid]",73%,–
"CCCN(Cc1ccc(Nc2ccccc2)cc1)C(=O)C1C(C(=O)O)C(C(=O)N(CCC)Cc2ccc(Nc3ccccc3)cc2)C1C(=O)O (stereo not drawn) [Example 62, (1α,2β,3β,4α)-1,3-Di[N-propyl-N-(4-phenylaminobenzyl)aminocarbonyl]cyclobutane-2,4-dicarboxylic acid]",69%,–
"CCCN(Cc1ccc(COc2ccccc2)cc1)C(=O)C1C(C(=O)O)C(C(=O)N(CCC)Cc2ccc(COc3ccccc3)cc2)C1C(=O)O (stereo not drawn) [Example 65, (1α,2β,3β,4α)-1,3-Di[N-propyl-N-(4-phenoxymethylbenzyl)aminocarbonyl]-2,4-cyclobutanedicarboxylic acid]",–,52%
"CCCN(C(=O)C1C(C(=O)O)C(C(=O)N(CCC)c2ccc(Oc3ccccc3)cc2)C1C(=O)O)c1ccc(Oc2ccccc2)cc1 (stereo not drawn) [Example 66, (1α,2β,3β,4α)-1,3-Di[N-propyl-N-(4-phenoxyphenyl)aminocarbonyl]cyclobutane-2,4-dicarboxylic acid]",88%,–
"O=C(O)[C@H]1[C@H](C(=O)N(CCO)Cc2ccc(Oc3ccccc3)cc2)[C@H](C(=O)O)[C@H]1C(=O)N(CCO)Cc1ccc(Oc2ccccc2)cc1 [Example 74, (1α,2β,3β,4α)-1,3-Di[N-(2-hydroxyethyl)-N-(4-phenoxybenzyl)aminocarbonyl]cyclobutane-2,4-dicarboxylic acid]",–,22%
"O=C(O)[C@H]1[C@H](C(=O)N(Cc2ccc(Oc3ccccc3)cc2)Cc2ccc3ccccc3c2)[C@H](C(=O)O)[C@H]1C(=O)N(Cc1ccc(Oc2ccccc2)cc1)Cc1ccc2ccccc2c1 [Example 81, (1α,2β,3β,4α)-1,3-Di [N-(4-phenoxybenzyl)-N-(2-methylnaphthyl)aminocarbonyl]cyclobutane-2,4-dicarboxylic acid]",–,62%
"CCCN(C[C@H](C)CCCc1ccccc1)C(=O)[C@H]1[C@H](C(=O)O)[C@H](C(=O)N(CCC)C[C@H](C)CCCc2ccccc2)[C@H]1C(=O)O [Example 82, (1α,2β,3β,4α)-1,3-Di [N-((2R)-2-methyl-5-phenylpentyl)-N-(n-propyl)aminocarbonyl]cyclobutane-2,4-dicarboxylic acid]",–,21%
"CC(=O)OC(CCCN(Cc1ccccc1)C(=O)C1C(C(=O)O)C(C(=O)N(CCCC(OC(C)=O)C(C)Cc2ccccc2)Cc2ccccc2)C1C(=O)O)C(C)Cc1ccccc1 (stereo not drawn) [Example 84, (1α,2β,3β,4α)-1,3-Di [N-benzyl-N-{syn-(4-acetoxy-5-methyl) -6-phenylhexyl}aminocarbonyl]cyclobutane-2,4-dicarboxylic acid]",–,93%
"C[C@H](CCCc1ccccc1)CN(Cc1ccccc1)C(=O)[C@H]1[C@H](C(=O)O)[C@H](C(=O)N(Cc2ccccc2)C[C@H](C)CCCc2ccccc2)[C@H]1C(=O)O [Example 85, (1α,2β,3β,4α)-1,3-Di[N-benzyl-N-((2R)-5-phenyl-2-methylpentyl)aminocarbonyl]cyclobutane-2,4-dicarboxylic acid]",–,58%
"C[C@H](C/C=C/c1ccccc1)CN(Cc1ccccc1)C(=O)[C@H]1[C@H](C(=O)O)[C@H](C(=O)N(Cc2ccccc2)C[C@H](C)C/C=C/c2ccccc2)[C@H]1C(=O)O [Example 86, (1α,2β,3β,4α)-1,3-Di [N-benzyl-N-{(E)-(2R)-2-methyl-5-phenyl-4-pentenyl}aminocarbonyl]cyclobutane-2,4-dicarboxylic acid]",–,61%
C[C@H](c1ccccc1)N(Cc1ccc(Oc2ccccc2)cc1)C(=O)[C@H]1[C@H](C(=O)O)[C@H](C(=O)N(Cc2ccc(Oc3ccccc3)cc2)[C@H](C)c2ccccc2)[C@H]1C(=O)O [Example 90],–,66%
"O=C(O)[C@H]1[C@H](C(=O)N2CC=C(c3ccc(Oc4ccccc4)cc3)CC2)[C@H](C(=O)O)[C@H]1C(=O)N1CC=C(c2ccc(Oc3ccccc3)cc2)CC1 [Example 92, (1α,2α,3β,4β)-1,3-Di[4-(4-phenoxyphenyl)-1,2,3,6-tetrahydropyridin-1-ylcarbonyl]cyclobutane-2,4-dicarboxylic acid]",–,45%
